Numbers after ± are expanded uncertainties.
Assay: molar heat capacity at constant pressure
Details: 101.33 kPa, Crystal, Small (less than 1 g) adiabatic calorimetry

For `C1C2CC3CC1CC(c1nnn[nH]1)(C2)C3` [5-(1-adamantyl)tetrazole], the “molar heat capacity at constant pressure” value (5 K) was 0.4912 ± 0.026 J/K/mol, the “molar heat capacity at constant pressure” value (10 K) was 3.942 ± 0.085 J/K/mol and the “molar heat capacity at constant pressure” value (15 K) was 9.695 ± 0.14 J/K/mol. The “molar heat capacity at constant pressure” value (20 K) was 16.01 ± 0.17 J/K/mol, the “molar heat capacity at constant pressure” value (25 K) was 22.15 ± 0.19 J/K/mol and the “molar heat capacity at constant pressure” value (30 K) was 27.84 ± 0.2 J/K/mol. The “molar heat capacity at constant pressure” value (35 K) was 32.99 ± 0.23 J/K/mol, the “molar heat capacity at constant pressure” value (40 K) was 37.67 ± 0.25 J/K/mol and the “molar heat capacity at constant pressure” value (45 K) was 42 ± 0.28 J/K/mol. The “molar heat capacity at constant pressure” value (50 K) was 46.01 ± 0.3 J/K/mol, the “molar heat capacity at constant pressure” value (60 K) was 53.34 ± 0.33 J/K/mol and the “molar heat capacity at constant pressure” value (70 K) was 60.13 ± 0.37 J/K/mol. For the same molecule, the “molar heat capacity at constant pressure” value (80 K) was 66.67 ± 0.41 J/K/mol, the “molar heat capacity at constant pressure” value (90 K) was 73.18 ± 0.45 J/K/mol and the “molar heat capacity at constant pressure” value (100 K) was 79.7 ± 0.49 J/K/mol. For the same molecule, the “molar heat capacity at constant pressure” value (120 K) was 92.76 ± 0.55 J/K/mol, the “molar heat capacity at constant pressure” value (140 K) was 106.3 ± 0.6 J/K/mol and the “molar heat capacity at constant pressure” value (160 K) was 120.6 ± 0.7 J/K/mol. The “molar heat capacity at constant pressure” value (180 K) was 136 ± 0.7 J/K/mol, the “molar heat capacity at constant pressure” value (200 K) was 152.5 ± 0.8 J/K/mol and the “molar heat capacity at constant pressure” value (220 K) was 170 ± 0.9 J/K/mol. The “molar heat capacity at constant pressure” value (240 K) was 188.4 ± 1 J/K/mol, the “molar heat capacity at constant pressure” value (260 K) was 207.4 ± 1.1 J/K/mol and the “molar heat capacity at constant pressure” value (280 K) was 225.3 ± 1.2 J/K/mol. The “molar heat capacity at constant pressure” value (298.15 K) was 240 ± 1.3 J/K/mol, the “molar heat capacity at constant pressure” value (300 K) was 241.6 ± 1.3 J/K/mol and the “molar heat capacity at constant pressure” value (320 K) was 256.9 ± 1.3 J/K/mol. The “molar heat capacity at constant pressure” value (340 K) was 272 ± 1.4 J/K/mol, the “molar heat capacity at constant pressure” value (360 K) was 287.6 ± 1.5 J/K/mol and the “molar heat capacity at constant pressure” value (370 K) was 295.6 ± 1.5 J/K/mol.

From the NIST ThermoML archive (doi:10.1016/j.tca.2014.07.018)
